Here are results for eleven molecules from patent publication US9969775B2, “CGRP antagonist peptides” (Ferring B.V., priority 2015, dated 2018).

Numbered stars: 1 amine (or outer) side, 2 acyl side, 3 side chain; on linkers, the order of the positions; unused ones are H or OH. Bridge positions count the residues as written; N and C are the ends. Square brackets hold non-standard residues; d marks the D form. Side chains are listed from the residue outwards. Peptide text beside a SMILES is read from it. * marks the point of attachment. Phe(3-CH2NH2) = O=C([C@H](Cc1cccc(CN[*:3])c1)N[*:1])[*:2]; Phe(3-CONH2) = NC(=O)c1cccc(C[C@H](N)C(=O)O)c1; X16 = CCN(CC)CC[C@H](N[*:1])C(=O)[*:2]; Dab(iPr) = CC(C)NCC[C@H](N)C(=O)O; Benzoyl(4-F) = O=C(c1ccc(F)cc1)*; Oxazole2carbonyl = O=C(c1ncco1)*; 3Pal = N[C@@H](Cc1cccnc1)C(=O)O; Picolinoyl = O=C(c1ccccn1)*; ΔPro = O=C(O)[C@@H]1C=CCN1; Dap = NC[C@H](N)C(=O)O; AEEA = NCCOCCOCC(=O)O

For assay [1], the target named is T1, hAM2 receptor (CALCRL:RAMP3) (Homo sapiens, UniProt O60896+Q16602).
T1 construct: expressed in transfected cells; host or cells: GeneBLAzer CALCRL:RAMP3-CRE-bla Freestyle 293F
Nature of the assay: AM2 receptor antagonist activity measured by cAMP assay (HTRF). Format: cell-based. The settings on record: for Emax: % MPE: percent of the maximal possible effect, read-out: hAM2-R Efficacy Antag (%) Ave; for Emax / IC50: agonist human adrenomedullin; for IC50: GeneBLAzer CALCRL:RAMP3-CRE-bla Freestyle 293F cells, read-out: hAM2-R IC50 Ave; for selectivity ratio CGRP/AM2: selectivity ratio for hCGRP over hAM2, calculated from the IC50 values.

Assay [2] has as its target T2, hCGRP receptor (CALCRL:RAMP1) (Homo sapiens, UniProt O60894+Q16602).
T2 construct: host or cells: GeneBLAzer CALCRL:RAMP1-CRE-bla Freestyle 293F
Nature of the assay: CGRP receptor antagonist activity measured by cAMP assay (HTRF). Format: cell-based. The following applies: agonist human α-CGRP; for Emax: % MPE: percent of the maximal possible effect, read-out: hCGRP-R Efficacy Antag (%) Ave; for IC50: GeneBLAzer CALCRL:RAMP1-CRE-bla Freestyle 293F cells, 30 minutes, read-out: hCGRP-R IC50 Ave. The method, then: Example 6: CGRP Receptor Antagonist Activity Measured by cAMP Assay
CGRP receptor agonists increase intracellular cyclic adenosine mono-phosphate (cAMP). CGRP receptor antagonists can reduce the agonist effect. Antagonist activity was assessed by measurement of cyclic adenosine mono-phosphate (cAMP) using cell line stably expressing the hCGRP receptor (GeneBLAzer® CALCRL:RAMP1-CRE-bla Freestyle™ 293F, Invitrogen). hCGRP receptor expressing cells were maintained in DMEM high-glucose with GlutaMAX™ containing 10% (v/v) FBS, 0.1 mM NEAA, 25 mM HEPES, 5 ug/ml Blasticidin, 100 ug/ml Hygromycin, and 400 ug/ml Geneticin at 37° C. under 5% CO2 in a humidified atmosphere. For cAMP measurement, cells were washed once with 5 ml 1×PBS, cell maintenance media was replaced with compound buffer ((CB): DMEM containing 0.1% BSA and 0.5 mM IBMX), and flasks were incubated for 1 hour at 37° C. under 5% CO2 in a humidified atmosphere. Cells were removed from culture flasks using non-enzymatic cell dissociation buffer and harvested in CB. The reaction was performed in 384 well white small volume plates (Greiner) at a density of 10,000 cells/well. Cells were exposed to varying concentrations of antagonist compounds for 30 minutes in the presence of a fixed concentration of agonist (human α-CGRP). cAMP levels were measured using an HTRF (homogeneous time resolved fluorescence)-based competitive cAMP immunoassay (cAMP Dynamic 2 Kit, Cisbio), according to the manufacturer's instructions. […] Reported parameters include antagonist potency IC50 (the concentration causing half-maximal inhibition of the agonist response for antagonist compounds) and efficacy (% MPE: percent of the maximal possible effect).

T2 sequence (Q16602 23-461): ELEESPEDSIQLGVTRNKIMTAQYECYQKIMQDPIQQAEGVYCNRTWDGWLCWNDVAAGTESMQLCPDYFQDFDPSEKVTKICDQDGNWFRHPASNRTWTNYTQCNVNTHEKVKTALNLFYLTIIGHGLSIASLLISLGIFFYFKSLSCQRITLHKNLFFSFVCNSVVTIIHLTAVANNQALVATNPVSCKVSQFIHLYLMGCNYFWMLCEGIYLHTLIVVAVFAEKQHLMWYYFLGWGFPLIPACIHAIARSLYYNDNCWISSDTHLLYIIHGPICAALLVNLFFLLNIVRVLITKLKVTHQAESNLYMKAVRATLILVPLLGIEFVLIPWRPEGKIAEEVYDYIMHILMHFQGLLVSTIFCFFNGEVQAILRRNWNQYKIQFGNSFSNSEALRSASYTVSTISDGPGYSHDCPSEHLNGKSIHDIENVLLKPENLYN
T2 sequence (O60894 27-148): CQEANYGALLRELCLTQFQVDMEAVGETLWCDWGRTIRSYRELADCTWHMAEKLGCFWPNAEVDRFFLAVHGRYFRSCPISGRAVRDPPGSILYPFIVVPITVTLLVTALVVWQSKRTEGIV
T1 sequence (Q16602 23-461): as the sequence (Q16602 23-461) above
T1 sequence (O60896 24-148): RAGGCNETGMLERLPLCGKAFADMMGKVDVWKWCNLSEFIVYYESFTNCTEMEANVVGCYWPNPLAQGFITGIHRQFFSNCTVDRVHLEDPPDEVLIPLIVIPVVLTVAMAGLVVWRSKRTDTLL

Usually IC50 stands for the concentration that inhibits the measured activity by half. With `CC(C)[C@@H]1NC(=O)[C@H](CC(=O)O)NC(=O)[C@H](CCCNC(=N)N)NC(=O)[C@@H](NC(=O)[C@H](Cc2ccc(O)cc2)NC(=O)[C@H](NC(=O)c2ccc(F)cc2)C(C)C)CSSC[C@@H](C(=O)N[C@@H](Cc2cccnc2)C(N)=O)NC(=O)[C@H](Cc2ccccc2)NC(=O)[C@@H]2CCCN2C(=O)CNC1=O` [Compound 1] ({Benzoyl(4-F)}-[dV]YCRDVGPFC[3Pal]-NH2; disulfide 3-10), in assay [1], the Emax was 101%, the IC50 was 52 nM and the “selectivity ratio CGRP/AM2” value is reported as 362. For the same molecule, in assay [2], the Emax is 100% and the IC50 is 0.14 nM.

In the case of `CC(C)[C@@H]1NC(=O)[C@H](CC(=O)O)NC(=O)[C@H](CCCNC(=N)N)NC(=O)[C@@H](NC(=O)[C@H](Cc2ccc(O)cc2)NC(=O)[C@H](NC(=O)c2ccc(F)cc2)C(C)C)CSSC[C@@H](C(=O)N[C@@H](Cc2cccnc2)C(N)=O)NC(=O)[C@H](Cc2cccnc2)NC(=O)[C@@H]2CCCN2C(=O)CNC1=O` [Compound 2, Bz(4-F)-D-Val-Tyr-c(Cys-Arg-Asp-Val-Gly-Pro-3Pal-Cys)-3Pal-NH2] ({Benzoyl(4-F)}-[dV]YCRDVGP[3Pal]C[3Pal]-NH2; disulfide 3-10), in assay [1], the Emax is 100%, the IC50 is 45 nM and the “selectivity ratio CGRP/AM2” value was 555. Besides, in assay [2], the Emax is 100% and the IC50 was 0.08 nM.

Take `CC(C)[C@@H]1NC(=O)[C@H](CC(=O)O)NC(=O)[C@H](CCCNC(=N)N)NC(=O)[C@@H](NC(=O)[C@H](Cc2ccc(O)cc2)NC(=O)[C@H](NC(=O)c2ccccn2)C(C)C)CSSC[C@@H](C(=O)N[C@@H](Cc2cccnc2)C(N)=O)NC(=O)[C@H](Cc2cccnc2)NC(=O)[C@@H]2CCCN2C(=O)CNC1=O` [Compound 3, Picolinoyl-D-Val-Tyr-c(Cys-Arg-Asp-Val-Gly-Pro-3Pal-Cys)-3Pal-NH2] (Picolinoyl-[dV]YCRDVGP[3Pal]C[3Pal]-NH2; disulfide 3-10): in assay [1], the Emax is 101%, the IC50 is 35 nM and the “selectivity ratio CGRP/AM2” value is 285. Moreover, in assay [2], the Emax was 100% and the IC50 was 0.12 nM.

`CC(C)[C@@H]1NC(=O)[C@H](CC(=O)O)NC(=O)[C@H](CCCNC(=N)N)NC(=O)[C@@H](NC(=O)[C@H](Cc2ccc(O)cc2)NC(=O)[C@H](NC(=O)c2ccc(F)cc2)C(C)C)CSSC[C@@H](C(=O)N[C@@H](Cc2cccnc2)C(N)=O)NC(=O)[C@H](Cc2ccccc2)NC(=O)[C@@H]2C=CCN2C(=O)CNC1=O` [Compound 4, Bz(4-F)-D-Val-Tyr-c(Cys-Arg-Asp-Val-Gly-Dhp-Phe-Cys)-3Pal-NH2] ({Benzoyl(4-F)}-[dV]YCRDVG[ΔPro]FC[3Pal]-NH2; disulfide 3-10): in assay [1], the Emax is 113%, the IC50 is 29 nM and the “selectivity ratio CGRP/AM2” value was 172. In assay [2], the Emax was 100% and the IC50 was 0.17 nM.

With `CC(C)[C@@H]1NC(=O)[C@H](CC(=O)O)NC(=O)[C@H](CCCNC(=N)N)NC(=O)[C@@H](NC(=O)[C@H](Cc2ccc(O)cc2)NC(=O)[C@H](NC(=O)c2ccc(F)cc2)C(C)C)CSSC[C@@H](C(=O)N[C@@H](Cc2cccnc2)C(N)=O)NC(=O)[C@H](Cc2cccc(CN)c2)NC(=O)[C@@H]2CCCN2C(=O)CNC1=O` [Compound 5, Bz(4-F)-D-Val-Tyr-c(Cys-Arg-Asp-Val-Gly-Pro-Phe(3-CH2NH2)-Cys)-3Pal-NH2] ({Benzoyl(4-F)}-[dV]YCRDVGP[Phe(3-CH2NH2)]C[3Pal]-NH2; disulfide 3-10), in assay [1], the Emax was 99%, the IC50 was 26 nM and the “selectivity ratio CGRP/AM2” value was 192. Also, in assay [2], the Emax was 100% and the IC50 was 0.13 nM.

On to `CC(C)[C@@H]1NC(=O)[C@H](CC(=O)O)NC(=O)[C@H](CN)NC(=O)[C@@H](NC(=O)[C@H](Cc2ccc(O)cc2)NC(=O)[C@H](NC(=O)c2ccc(F)cc2)C(C)C)CSSC[C@@H](C(=O)N[C@@H](Cc2cccnc2)C(N)=O)NC(=O)[C@H](Cc2cccc(C(N)=O)c2)NC(=O)[C@@H]2CCCN2C(=O)CNC1=O` [Compound 6, Bz(4-F)-D-Val-Tyr-c(Cys-Dpr-Asp-Val-Gly-Pro-Phe(3-Cbm)-Cys)-3Pal-NH2] ({Benzoyl(4-F)}-[dV]YC[Dap]DVGP[Phe(3-CONH2)]C[3Pal]-NH2; disulfide 3-10), for which, in assay [1], the Emax was 113%, the IC50 is 101 nM and the “selectivity ratio CGRP/AM2” value is on record as 612. Further, in assay [2], the Emax is 100% and the IC50 was 0.17 nM.

Consider `CC(C)[C@@H]1NC(=O)[C@H](CC(=O)O)NC(=O)[C@H](CN)NC(=O)[C@@H](NC(=O)[C@H](Cc2ccc(O)cc2)NC(=O)[C@H](NC(=O)c2ccc(F)cc2)C(C)C)CSSC[C@@H](C(=O)N[C@@H](Cc2cccnc2)C(N)=O)NC(=O)[C@H](Cc2ccc(O)cc2)NC(=O)[C@@H]2CCCN2C(=O)CNC1=O` [Compound 7, Bz(4-F)-D-Val-Tyr-c(Cys-Dpr-Asp-Val-Gly-Pro-Tyr-Cys)-3Pal-NH2] ({Benzoyl(4-F)}-[dV]YC[Dap]DVGPYC[3Pal]-NH2; disulfide 3-10), for which, in assay [1], the Emax is 100%, the IC50 is 43 nM and the “selectivity ratio CGRP/AM2” value was 334. Besides, in assay [2], the Emax is 100% and the IC50 was 0.13 nM.

On to `CCN(CC)CC[C@@H]1NC(=O)[C@@H](NC(=O)[C@H](Cc2ccc(O)cc2)NC(=O)[C@H](NC(=O)c2ccccn2)C(C)C)CSSC[C@@H](C(=O)N[C@@H](Cc2cccnc2)C(N)=O)NC(=O)[C@H](Cc2ccccc2)NC(=O)[C@@H]2CCCN2C(=O)CNC(=O)[C@H](C(C)C)NC(=O)[C@H](CC(=O)O)NC1=O` [Compound 8, Picolinoyl-D-Val-Tyr-c(Cys-Dab(Et2)-Asp-Val-Gly-Pro-Phe-Cys)-3Pal-NH2] (Picolinoyl-[dV]YC[X16]DVGPFC[3Pal]-NH2; disulfide 3-10), for which, in assay [1], the Emax was 100%, the IC50 is 30 nM and the “selectivity ratio CGRP/AM2” value is reported as 347. Further, in assay [2], the Emax is 100% and the IC50 is 0.09 nM.

Consider `CC(C)NCC[C@@H]1NC(=O)[C@@H](NC(=O)[C@H](Cc2ccc(O)cc2)NC(=O)[C@H](NC(=O)c2ccccn2)C(C)C)CSSC[C@@H](C(=O)N[C@@H](Cc2cccnc2)C(N)=O)NC(=O)[C@H](Cc2ccccc2)NC(=O)[C@@H]2CCCN2C(=O)CNC(=O)[C@H](C(C)C)NC(=O)[C@H](CC(=O)O)NC1=O` [Compound 9, Picolinoyl-D-Val-Tyr-c(Cys-Dab(iPr)-Asp-Val-Gly-Pro-Phe-Cys)-3Pal-NH2] (Picolinoyl-[dV]YC[Dab(iPr)]DVGPFC[3Pal]-NH2; disulfide 3-10), for which, in assay [1], the Emax is 106%, the IC50 is 51 nM and the “selectivity ratio CGRP/AM2” value was 351. In addition, in assay [2], the Emax is 100% and the IC50 is 0.15 nM.

As to `CC(C)[C@@H]1NC(=O)[C@H](CC(=O)O)NC(=O)[C@H](CNC(=O)COCCOCCNC(=O)COCCOCCN)NC(=O)[C@@H](NC(=O)[C@H](Cc2ccc(O)cc2)NC(=O)[C@H](NC(=O)c2ccccn2)C(C)C)CSSC[C@@H](C(=O)N[C@@H](Cc2cccnc2)C(N)=O)NC(=O)[C@H](Cc2ccccc2)NC(=O)[C@@H]2CCCN2C(=O)CNC1=O` [Compound 10] (Picolinoyl-[dV]YC[Dap]([AEEA-AEEA])DVGPFC[3Pal]-NH2; disulfide 3-10), the Emax in assay [1] is 107%; in assay [2], 100%.

On to `CC(C)[C@@H]1NC(=O)[C@H](CC(=O)O)NC(=O)[C@H](CCCNC(=N)N)NC(=O)[C@@H](NC(=O)[C@H](Cc2ccc(O)cc2)NC(=O)[C@H](NC(=O)c2ncco2)C(C)C)CSSC[C@@H](C(=O)N[C@@H](Cc2cccnc2)C(N)=O)NC(=O)[C@H](Cc2cccnc2)NC(=O)[C@@H]2CCCN2C(=O)CNC1=O` [Compound 11, Oxazole-2-carbonyl-D-Val-Tyr-c(Cys-Arg-Asp-Val-Gly-Pro-3Pal-Cys)-3Pal-NH2] (Oxazole2carbonyl-[dV]YCRDVGP[3Pal]C[3Pal]-NH2; disulfide 3-10), for which, in assay [1], the Emax is 108%, the IC50 is 25 nM and the “selectivity ratio CGRP/AM2” value is recorded as 198. In assay [2], the Emax was 100% and the IC50 is 0.13 nM.
